Experimental data published in the supplement of paper PMC10307832.

Assays:
Experiment in all cases: relative viability (nuclei count vs DMSO), 5 days (fraction); higher = more cells survive
IPA-3 + Palbociclib = compound: C1=CC=C2C(=C1)C=CC(=C2SSC3=C(C=CC4=CC=CC=C43)O)O [IPA-3] + CC(=O)c1c(C)c2cnc(Nc3ccc(N4CCNCC4)cn3)nc2n(C2CCCC2)c1=O [Palbociclib] (partner 0.5 µM)
Method in brief: (§1)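 For relative viability, nuclei counts in treated wells were divided by those in vehicle wells. Lung cancer cell lines had been pin-tool dosed in 1536-well plates the day after seeding and cultured for 5 days, then fixed and stained in one step (final 0.05% Triton X-100, 1% formaldehyde, 1 ug/ml Hoechst) and imaged at 4×. Doses were one drug alone or a fixed anchor-drug dose plus five library-drug doses (not always all listed) in √10 steps, and values are duplicate-plate medians.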

IPA-3 + Pictilisib = compound: C1=CC=C2C(=C1)C=CC(=C2SSC3=C(C=CC4=CC=CC=C43)O)O [IPA-3] + CS(=O)(=O)N1CCN(Cc2cc3nc(-c4cccc5[nH]ncc45)nc(N4CCOCC4)c3s2)CC1 [Pictilisib] (partner 1 µM)
Method in brief: as §1

Doramapimod + Olaparib = compound: Cc1ccc(-n2nc(C(C)(C)C)cc2NC(=O)Nc2ccc(OCCN3CCOCC3)c3ccccc23)cc1 [Doramapimod] + O=C(c1cc(Cc2n[nH]c(=O)c3ccccc23)ccc1F)N1CCN(C(=O)C2CC2)CC1 [Olaparib] (partner 8 µM)
Method in brief: as §1

Doramapimod + Lapatinib = compound: Cc1ccc(-n2nc(C(C)(C)C)cc2NC(=O)Nc2ccc(OCCN3CCOCC3)c3ccccc23)cc1 [Doramapimod] + CS(=O)(=O)CCNCc1ccc(-c2ccc3ncnc(Nc4ccc(OCc5cccc(F)c5)c(Cl)c4)c3c2)o1 [Lapatinib] (partner 2 µM)
Method in brief: as §1

Cell Line	relative viability (IPA-3 + Palbociclib; first compound 0.2 µM)	relative viability (IPA-3 + Palbociclib; first compound 0.6325 µM)	relative viability (IPA-3 + Palbociclib; first compound 2 µM)	relative viability (IPA-3 + Palbociclib; first compound 6.325 µM)	relative viability (IPA-3 + Palbociclib; first compound 20 µM)	relative viability (IPA-3 + Pictilisib; first compound 0.2 µM)	relative viability (IPA-3 + Pictilisib; first compound 0.6325 µM)	relative viability (IPA-3 + Pictilisib; first compound 2 µM)	relative viability (IPA-3 + Pictilisib; first compound 6.325 µM)	relative viability (IPA-3 + Pictilisib; first compound 20 µM)	relative viability (Doramapimod + Olaparib; first compound 0.02 µM)	relative viability (Doramapimod + Olaparib; first compound 0.06325 µM)	relative viability (Doramapimod + Olaparib; first compound 0.2 µM)	relative viability (Doramapimod + Olaparib; first compound 0.6325 µM)	relative viability (Doramapimod + Olaparib; first compound 2 µM)	relative viability (Doramapimod + Lapatinib; first compound 0.02 µM)	relative viability (Doramapimod + Lapatinib; first compound 0.06325 µM)	relative viability (Doramapimod + Lapatinib; first compound 0.2 µM)	relative viability (Doramapimod + Lapatinib; first compound 0.6325 µM)	relative viability (Doramapimod + Lapatinib; first compound 2 µM)
NCI-H1395	0.681	0.524	0.634	0.608	0.61	0.607	0.61	0.441	0.651	0.668	0.463	0.462	0.466	0.498	0.421	1.38	1.13	1.05	0.913	0.818
NCI-H2126	0.33	0.369	0.335	0.343	0.375	0.48	0.505	0.449	0.503	0.512	0.768	0.925	0.989	0.962	0.94	0.815	0.811	0.781	0.735	0.662
H3255	0.306	0.308	0.29	0.298	0.272	0.454	0.465	0.44	0.573	0.558	0.591	0.567	0.573	0.567	0.539	0.234	0.233	0.244	0.241	0.267
HCC-15	0.889	0.78	0.462	0.697	0.704	0.853	0.783	0.724	0.776	0.841	0.675	0.692	0.675	0.654	0.623	0.864	0.962	0.84	0.521	0.752
NCI-H661	0.406	0.434	0.389	0.435	0.366	0.409	0.458	0.472	0.547	0.418	0.797	0.756	0.785	0.717	0.75	0.477	0.438	0.48	0.588	0.413
NCI-H2009	0.203	0.202	0.2	0.231	0.151	0.889	0.726	0.784	0.83	0.57	0.669	0.697	0.669	0.712	0.622	0.95	0.952	1.13	0.234	0.888
HCC-44	0.966	1.02	0.979	0.948	0.934	0.605	1.49	0.53	1.04	0.63	0.995	0.976	0.993	0.979	0.977	1.1	1.05	1.07	0.837	0.963
COR-L23	0.283	0.301	0.316	0.266	0.118	1.01	0.75	0.764	0.615	0.72	0.368	0.351	0.368	0.315	0.379	1.09	1.1	0.99	1.01	0.91
